Data from ChEMBL document CHEMBL4311985, “Novel virosecurinine bivalent mimetics as potent reversal agents against P-glycoprotein-mediated multidrug resistance” (Eur J Med Chem, 2019).
Active and inactive are the calls of the source. The rule behind the calls is not given here.

Columns and labels:
[1] = biological target: T1, ATP-dependent translocase ABCB1 (Homo sapiens, UniProt P08183); assay: Reversal of P-gp mediated drug efflux in human HepG2/Dox cells assessed as increase in intracellular doxorubicin accumulation at 10 uM preincubated for 4 hrs followed by doxorubicin addition measured after 1 hr incubation by fluorescence microscopic analysis; format: cell-based
T1 sequence (P08183 whole entry): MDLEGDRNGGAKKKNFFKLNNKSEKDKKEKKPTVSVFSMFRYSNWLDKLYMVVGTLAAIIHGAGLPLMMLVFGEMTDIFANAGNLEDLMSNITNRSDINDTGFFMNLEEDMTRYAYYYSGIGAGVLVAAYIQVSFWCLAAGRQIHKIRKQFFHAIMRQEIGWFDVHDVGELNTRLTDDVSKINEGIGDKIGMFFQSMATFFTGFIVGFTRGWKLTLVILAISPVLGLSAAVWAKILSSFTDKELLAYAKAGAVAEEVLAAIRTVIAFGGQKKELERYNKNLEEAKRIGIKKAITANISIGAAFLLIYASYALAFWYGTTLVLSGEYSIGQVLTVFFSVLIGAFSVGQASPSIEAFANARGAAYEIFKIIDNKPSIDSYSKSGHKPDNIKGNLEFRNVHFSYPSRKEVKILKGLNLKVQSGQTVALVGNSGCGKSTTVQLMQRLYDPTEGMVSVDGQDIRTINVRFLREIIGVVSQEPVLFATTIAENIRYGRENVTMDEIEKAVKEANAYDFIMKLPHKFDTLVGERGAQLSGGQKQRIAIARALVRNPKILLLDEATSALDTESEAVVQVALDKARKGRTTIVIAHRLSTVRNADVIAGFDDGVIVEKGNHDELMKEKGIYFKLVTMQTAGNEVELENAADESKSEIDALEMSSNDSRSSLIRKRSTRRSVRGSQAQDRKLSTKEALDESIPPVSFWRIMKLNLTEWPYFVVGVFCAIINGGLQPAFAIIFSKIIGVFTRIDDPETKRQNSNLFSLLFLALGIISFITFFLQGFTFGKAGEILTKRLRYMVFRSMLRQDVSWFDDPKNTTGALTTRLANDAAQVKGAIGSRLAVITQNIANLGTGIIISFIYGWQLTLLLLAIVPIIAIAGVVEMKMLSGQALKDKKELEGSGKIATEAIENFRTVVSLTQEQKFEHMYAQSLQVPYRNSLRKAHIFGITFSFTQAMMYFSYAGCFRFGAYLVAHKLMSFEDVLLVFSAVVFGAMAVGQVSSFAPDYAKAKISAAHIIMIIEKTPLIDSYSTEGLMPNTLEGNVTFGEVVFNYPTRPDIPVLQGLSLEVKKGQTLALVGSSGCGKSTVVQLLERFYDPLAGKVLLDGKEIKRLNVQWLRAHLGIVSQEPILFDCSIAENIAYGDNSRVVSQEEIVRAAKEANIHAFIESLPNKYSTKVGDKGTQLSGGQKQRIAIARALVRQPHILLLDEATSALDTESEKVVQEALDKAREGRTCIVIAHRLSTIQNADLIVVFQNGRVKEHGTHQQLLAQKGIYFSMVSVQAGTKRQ

[2] = biological target: T1, ATP-dependent translocase ABCB1; assay: Inhibition of P-gp mediated doxorubicin efflux in human HepG2/Dox cells at 5 to 10 uM preincubated for 4 hrs followed by co-incubation with doxorubicin for 2 hrs followed by doxorubicin wash-out and measured after 120 mins incubation with drug containing culture medium by fluorescence based analysis; format: cell-based
[3] = organism: Homo sapiens; assay: Effect on P-gp expression in human MCF7/ADM cells at 5 to 10 uM measured after 48 hrs by Western blot analysis; format: functional, cell-based
[4] = Cardiotoxicity in BALB/c nude mouse xenografted with human HepG2/Dox cells assessed as effect on doxorubicin-induced myocardial cell enlargement at 25 mg/kg, iv cotreated with doxorubicin every 3rd day for 12 days by hematoxylin and eosin staining based assay; format: toxicity, organism-based; settings: in vivo, 288 h
[5] = Toxicity in BALB/c nude mouse xenografted with human HepG2/Dox cells assessed as effect on doxorubicin-induced body weight decline at 25 mg/kg, iv coadministered with doxorubicin every 3rd day for 12 days; format: organism-based; settings: in vivo, 288 h
[6] = Toxicity in lung of BALB/c nude mouse xenografted with human HepG2/Dox cells at 25 mg/kg, ip administered daily by hematoxylin and eosin staining based assay; format: organism-based; settings: in vivo
[7] = tested on: Homo sapiens; assay: In vivo reversal of P-gp mediated drug resistance in human HepG2/Dox cells xenografted in BALB/c nude mouse assessed as tumour growth at 25 mg/kg, ip administered daily; format: functional, organism-based
[8] = biological target: T1, ATP-dependent translocase ABCB1; assay: Reversal of P-gp mediated drug efflux in human HepG2/Dox cells assessed as increase in intracellular Rhodamine123 accumulation at 5 to 10 uM preincubated for 4 hrs followed by Rh123 addition measured after 1 hr incubation by flow cytometry analysis; format: cell-based
[9] = Cardiotoxicity in BALB/c nude mouse xenografted with human HepG2/Dox cells assessed as effect on myocardial cells at 25 mg/kg, ip administered daily by hematoxylin and eosin staining based assay; format: toxicity, organism-based; settings: in vivo
[10] = Cytotoxicity against human MCF7/ADM cells assessed as cell viability at 10 uM measured after 48 hrs by MTT assay relative to control; format: cell-based; settings: read-out: Activity
[11] = Toxicity in liver of BALB/c nude mouse xenografted with human HepG2/Dox cells at 25 mg/kg, iv cotreated with doxorubicin every 3rd day for 12 days by hematoxylin and eosin staining based assay; format: organism-based; settings: in vivo, 288 h
[12] = biological target: T1, ATP-dependent translocase ABCB1; assay: Reversal of P-gp mediated drug efflux in human HepG2/Dox cells assessed as increase in intracellular Rhodamine123 accumulation at 10 uM preincubated for 4 hrs followed by Rh123 addition measured after 1 hr incubation by fluorescence microscopic analysis; format: cell-based
[13] = tested on: Homo sapiens; assay: In vivo reversal of P-gp mediated drug resistance in human HepG2/Dox cells xenografted in BALB/c nude mouse assessed as reduction in tumour growth at 25 mg/kg, iv co-administered with doxorubicin every 3rd day for 12 days; format: functional, organism-based
[14] = Cytotoxicity against human HepG2/DOX cells assessed as cell viability at 10 uM measured after 48 hrs by MTT assay relative to control; format: cell-based; settings: read-out: Activity
[15] = tested on: HepG2; assay: Cytotoxicity against human HepG2 cells assessed as cell viability at 5 to 50 uM measured after 48 hrs by MTT assay; format: cell-based; settings: hepg2, 48 h
[16] = Toxicity in BALB/c nude mouse xenografted with human HepG2/Dox cells assessed as effect on body weight at 25 mg/kg, ip administered daily; format: organism-based; settings: in vivo
[17] = biological target: T1, ATP-dependent translocase ABCB1; assay: Reversal of P-gp mediated multidrug resistance in human HepG2/DOX cells assessed as fold reduction in doxorubicin IC50 at 10 uM measured within 48 hrs by MTT assay relative to control; format: cell-based
[18] = biological target: T1, ATP-dependent translocase ABCB1; assay: Inhibition of P-gp mediated doxorubicin efflux in human MCF7/ADM cells at 5 to 10 uM preincubated for 4 hrs followed by co-incubation with doxorubicin for 2 hrs followed by doxorubicin wash-out and measured after 120 mins incubation with drug containing culture medium by fluorescence based analysis; format: cell-based
[19] = Toxicity in kidney of BALB/c nude mouse xenografted with human HepG2/Dox cells at 25 mg/kg, ip administered daily by hematoxylin and eosin staining based assay; format: organism-based; settings: in vivo
[20] = biological target: T1, ATP-dependent translocase ABCB1; assay: Reversal of P-gp mediated multidrug resistance in human MCF7/ADM cells assessed as potentiation of doxorubicin-induced cell growth inhibition at 10 uM measured after 48 hrs by MTT assay (reference value: 5%); format: cell-based
[21] = Cytotoxicity against human AC16 cells assessed as cell survival at 50 uM measured after 72 hrs by MTT assay relative to control; format: cell-based; settings: read-out: Activity
[22] = tested on: MCF7; assay: Cytotoxicity against human MCF7 cells assessed as cell viability at 5 to 50 uM measured after 48 hrs by MTT assay; format: cell-based; settings: mcf7, 48 h
[23] = biological target: T1, ATP-dependent translocase ABCB1; assay: Reversal of P-gp mediated multidrug resistance in human MCF7/ADM cells assessed as potentiation of doxorubicin-induced cytotoxicity at 5 to 10 uM by MTT assay; format: cell-based; settings: TDE = time-dependent effect
[24] = biological target: T1, ATP-dependent translocase ABCB1; assay: Reversal of P-gp mediated multidrug resistance in human MCF7/ADM cells assessed as fold reduction in doxorubicin IC50 at 5 uM measured within 48 hrs by MTT assay relative to control; format: cell-based
[25] = Toxicity in spleen of BALB/c nude mouse xenografted with human HepG2/Dox cells assessed as blood extravasation at 25 mg/kg, iv cotreated with doxorubicin every 3rd day for 12 days by hematoxylin and eosin staining based assay; format: organism-based; settings: in vivo, 288 h
[26] = biological target: T1, ATP-dependent translocase ABCB1; assay: Reversal of P-gp mediated multidrug resistance in human HepG2/DOX cells assessed as potentiation of doxorubicin-induced cytotoxicity at 5 to 10 uM by MTT assay; format: cell-based; settings: TDE = time-dependent effect
[27] = Toxicity in liver of BALB/c nude mouse xenografted with human HepG2/Dox cells at 25 mg/kg, ip administered daily by hematoxylin and eosin staining based assay; format: organism-based; settings: in vivo
[28] = Toxicity in kidney of BALB/c nude mouse xenografted with human HepG2/Dox cells at 25 mg/kg, iv cotreated with doxorubicin every 3rd for 12 days by hematoxylin and eosin staining based assay; format: organism-based; settings: in vivo, 288 h
[29] = biological target: T1, ATP-dependent translocase ABCB1; assay: Reversal of P-gp mediated multidrug resistance in human HepG2/Dox cells assessed as potentiation of doxorubicin-induced cell growth inhibition at 10 uM measured after 48 hrs by MTT assay (reference value: 24%); format: cell-based
[30] = biological target: T1, ATP-dependent translocase ABCB1; assay: Reversal of P-gp mediated drug efflux in human MCF7/ADM cells assessed as increase in intracellular doxorubicin accumulation at 10 uM preincubated for 4 hrs followed by doxorubicin addition measured after 1 hr incubation by fluorescence microscopic analysis; format: cell-based
[31] = Toxicity in spleen of BALB/c nude mouse xenografted with human HepG2/Dox cells assessed as inflammation at 25 mg/kg, iv cotreated with doxorubicin every 3rd day for 12 days by hematoxylin and eosin staining based assay; format: organism-based; settings: in vivo, 288 h
[32] = Toxicity in lung of BALB/c nude mouse xenografted with human HepG2/Dox cells at 25 mg/kg, iv cotreated with doxorubicin every 3rd day for 12 days by hematoxylin and eosin staining based assay; format: organism-based; settings: in vivo, 288 h
[33] = biological target: T1, ATP-dependent translocase ABCB1; assay: Reversal of P-gp mediated multidrug resistance in human MCF7/ADM cells assessed as fold reduction in doxorubicin IC50 at 10 uM measured within 48 hrs by MTT assay relative to control; format: cell-based
[34] = biological target: T1, ATP-dependent translocase ABCB1; assay: Reversal of P-gp mediated multidrug resistance in human HepG2/DOX cells assessed as potentiation of taxol-induced cytotoxicity at 5 to 10 uM by MTT assay; format: cell-based; settings: TDE = time-dependent effect
[35] = biological target: T1, ATP-dependent translocase ABCB1; assay: Stimulation of P-gp ATPase activity (unknown origin) at 5 to 10 uM incubated for 40 mins by P-gp-Glo luminescence assay
[36] = biological target: T1, ATP-dependent translocase ABCB1; assay: Reversal of P-gp mediated drug efflux in human HepG2/Dox cells assessed as increase in intracellular doxorubicin accumulation at 5 to 10 uM preincubated for 4 hrs followed by doxorubicin addition measured after 1 hr incubation by flow cytometry analysis; format: cell-based
[37] = organism: Homo sapiens; assay: Effect on P-gp expression in human HepG2/Dox cells at 5 to 10 uM measured after 48 hrs by Western blot analysis; format: functional, cell-based
[38] = biological target: T1, ATP-dependent translocase ABCB1; assay: Reversal of P-gp mediated drug efflux in human MCF7/ADM cells assessed as increase in intracellular Rhodamine123 accumulation at 10 uM preincubated for 4 hrs followed by Rh123 addition measured after 1 hr incubation by fluorescence microscopic analysis; format: cell-based
[39] = biological target: T1, ATP-dependent translocase ABCB1; assay: Reversal of P-gp mediated multidrug resistance in human MCF7/ADM cells assessed as potentiation of doxorubicin-induced cell growth inhibition at 10 uM measured after 48 hrs by MTT assay; format: cell-based
[40] = Cytotoxicity against human HepG2/DOX cells assessed as reduction in cell viability at 10 uM measured after 48 hrs by MTT assay; format: cell-based
[41] = Cytotoxicity against human MCF7/ADM cells assessed as reduction in cell viability at 10 uM measured after 48 hrs by MTT assay; format: cell-based
[42] = biological target: T1, ATP-dependent translocase ABCB1; assay: Reversal of P-gp mediated multidrug resistance in human HepG2/Dox cells assessed as potentiation of doxorubicin-induced cell growth inhibition at 10 uM measured after 48 hrs by MTT assay; format: cell-based

Question: For `CCCN(C(=O)CCCCCCC(=O)N(CCC)[C@H]1CC2=CC(=O)O[C@]23C[C@H]1N1CCCC[C@H]13)[C@H]1CC2=CC(=O)O[C@]23C[C@H]1N1CCCC[C@H]13`, which “inhibition (INH)” value [1] is on record?
Answer: Active

Question: And the “inhibition (INH)” value [2]?
Answer: Active

Question: And the Activity [3]?
Answer: inactive

Question: What about the Activity [4] of the same compound?
Answer: Non-Toxic

Question: And the Activity [5]?
Answer: Non-Toxic

Question: What about the Activity [6] of the same compound?
Answer: Non-Toxic

Question: What about the inhibition [7] of the same compound?
Answer: inactive

Question: What about the “inhibition (INH)” value [8] of the same compound?
Answer: Active

Question: What about the Activity [9] of the same compound?
Answer: Non-Toxic

Question: And the viability at 48 h, 10 µM [10]?
Answer: > 90%

Question: And the Activity [11]?
Answer: Non-Toxic

Question: And the “inhibition (INH)” value [12]?
Answer: Active

Question: And the inhibition [13]?
Answer: Active

Question: And the viability at 48 h, 10 µM [14]?
Answer: > 90%

Question: And the Activity [15]?
Answer: Non-Toxic

Question: And the Activity [16]?
Answer: Non-Toxic

Question: And the “fold change (FC)” value [17]?
Answer: 231

Question: What about the “inhibition (INH)” value [18] of the same compound?
Answer: Active

Question: And the Activity [19]?
Answer: Non-Toxic

Question: And the inhibition at 10 µM [20]?
Answer: 78%

Question: And the viability at 72 h, 50 µM [21]?
Answer: 100%

Question: What about the Activity [22] of the same compound?
Answer: Non-Toxic

Question: What about the “inhibition (INH)” value [23] of the same compound?
Answer: Tde

Question: And the “fold change (FC)” value [24]?
Answer: 10.4

Question: What about the Activity [25] of the same compound?
Answer: Toxic

Question: What about the “inhibition (INH)” value [26] of the same compound?
Answer: Tde

Question: And the Activity [27]?
Answer: Non-Toxic

Question: And the Activity [28]?
Answer: Non-Toxic

Question: What about the inhibition at 10 µM [29] of the same compound?
Answer: 85%

Question: What about the “inhibition (INH)” value [30] of the same compound?
Answer: Active

Question: And the Activity [31]?
Answer: Toxic

Question: What about the Activity [32] of the same compound?
Answer: Non-Toxic

Question: And the “fold change (FC)” value [33]?
Answer: 126.4

Question: What about the “inhibition (INH)” value [34] of the same compound?
Answer: Tde

Question: And the Activity [35]?
Answer: Active

Question: What about the “inhibition (INH)” value [36] of the same compound?
Answer: Active

Question: And the Activity [37]?
Answer: inactive

Question: And the “inhibition (INH)” value [38]?
Answer: Active

Question: Which inhibition at 10 µM [20] does the source give for `O=C1C=C2C=C[C@@H]3C[C@@]2(O1)[C@H]1CCCCN31` [SECURININE] here?
Answer: 31%

Question: What about the inhibition at 10 µM [29] of the same compound?
Answer: 36%

Question: For `CCCN(C(=O)CCCCCCC(=O)N(CCC)[C@H]1CC2=CC(=O)O[C@@]23C[C@@H]1N1CCCC[C@@H]13)[C@H]1CC2=CC(=O)O[C@@]23C[C@@H]1N1CCCC[C@@H]13`, which “inhibition (INH)” value [39] is on record?
Answer: Not Active

Question: What about the inhibition at 10 µM [29] of the same compound?
Answer: 81%

Question: With `COc1ccc(CCN(C)CCCC(C#N)(c2ccc(OC)c(OC)c2)C(C)C)cc1OC` (stereo not drawn) [VERAPAMIL] as the compound, how does the inhibition at 10 µM [20] read?
Answer: 70%

Question: And the inhibition at 10 µM [29]?
Answer: 84%

Question: What does the source list for `CCCN(C(=O)CCCCCCCC(=O)N(CCC)[C@H]1CC2=CC(=O)O[C@]23C[C@H]1N1CCCC[C@H]13)[C@H]1CC2=CC(=O)O[C@]23C[C@H]1N1CCCC[C@H]13`?
Answer: Activity [40]: Toxic; inhibition (INH) [39]: Active; Activity [41]: Toxic; inhibition (INH) [42]: Active
